According to US6387933B1, “Insecticidal compositions and insecticidal methods” (Sumitomo Chemical Company, Limited, priority 2001, dated 2002):

Assays:
[1] = tested on: silverleaf whiteflies; experiment: Test Example 1: spray on cabbage seedlings infested with silverleaf whiteflies; format: in vivo; settings: 50 ppm; adults and larvae on cabbage seedling, 8 days after spray
Procedure: (§1) Cabbage seedlings planted in 3 ounces plastic cup were placed in a net cage containing many living silverleaf whiteflies for 24 hours, so that many silverleaf whiteflies became parasitic on the cabbage seedlings. A designated amount of each of acetamiprid on the market (commercial name, Mospilan water-soluble powder: produced by Nippon Soda), pyriproxyfen on the market (commercial name, Lano emulsifiable concentrate: produced by Sumitomo Chemical) and a mixture of acetamiprid and pyriproxyfen on the market were diluted with water, and then sprayed over the cabbage seedlings with spray gun. The number of silverleaf whiteflies (i.e., the total number of adults and larvae) surviving on the cabbage seedlings was examined just before and after 8 days from the treatment.

[2] = tested on: silverleaf whiteflies; experiment: Test Example 2: spray on cabbage seedlings infested with silverleaf whiteflies; format: in vivo; settings: 8 days after spray
Procedure: as §1

SMILES | Number of surviving insects/pot after 8 days [1] [insects/pot] | Number of surviving insects/pot after 8 days ([2]; 5 ppm) [insects/pot] | Number of surviving insects/pot after 8 days ([2]; 10 ppm) [insects/pot] | Number of surviving insects/pot after 8 days ([2]; 50 ppm) [insects/pot]
CC(COc1ccc(Oc2ccccc2)cc1)Oc1ccccn1 (centres unmarked) [pyriproxyfen, 4-phenoxyphenyl 2-(2-pyridyloxy)propyl ether] | 21 | 41 | 114 | 69
C/C(=N\C#N)N(C)Cc1ccc(Cl)nc1 [acetamiprid, (E)-N^1-[(6-chloro-3-pyridyl)methyl]-N^2-cyano-N^1-methylacetamidine] | 69 | 41 | 16 | 24
